Reference: US20250002569A1, “METHOD OF TREATING OSTEOARTHRITIS” (AlaMab Therapeutics, Inc., priority 2023, published 2025)
Structures can show the parent of a compound that is named as a salt.

Columns and labels:
Format in all cases: in vivo, Sprague Dawley (SD) rats
[1] = Weight of rats with osteoarthritis induced by pMMx+ACLT; settings: Duloxetine 5 mg/kg i.g. daily
Protocol: Male Sprague Dawley (SD) rats (Specific Pathogen Free grade; Shanghai Slac Laboratory Animal Co. Ltd) were obtained in the study. Each rat was weight at the start of treatment, with the average weight ranging from 200-220 grams. Upon arrival at the test facility, the animals were housed at five rats per cage and acclimated for five to seven days prior to initiation of treatment.
(§1) After acclimation of the animals, the animals were evaluated for normal pain threshold (on Day 1 of study) using the Von Frey, or Up-Down, method, and for biped balance degree of the knee joint on the surgical side (right hind limb) using a biped balance tester. The rats were then anesthetized with isoflurane, and the knee joints were depilated and disinfected. Osteoarthritis was induced in the animals by partial medial meniscectomy in combination with anterior cruciate ligament transection (pMMx+ACLT). Briefly, the skin and joint cavity close to the inner side of the right knee were cut, the knee joint was placed in the maximum flexion state, with the joint cavity exposed and the medial meniscus separated. The medial ⅓ meniscus and the anterior cruciate ligament were then cut-off. For the control animal group (no osteoarthritis induction), only the skin was cut to open the joint cavity without removing the ligament or meniscus. The date of the osteoarthritis model establishment was Day 8 of the study.
(§2) One week after model establishment (Day 15 of study), before administration of treatment, the basic pain threshold of plantar pain was evaluated on the operation side for each of the animals, and the osteoarthritis model rats were evenly divided according to the basic Von Frey reaction value (2-5), with 8 animals used for each of the osteoarthritis model group (vehicle-treatment), the positive control drug (duloxetine) 5 mg/kg group, and the ALMB-0166 15 mg/kg, 25 mg/kg, and 50 mg/kg dose groups. After grouping, drug treatment was started on Day 15 of study. For each of the ALMB-0166-treated test groups, the treatment was administered intravenously, once a week, with four total doses (on Day 15, 22, 29, and 36 of the study, corresponding to day 1, 8, 15 and 22 of treatment). For the positive control group, duloxetine was administered orally every day until the end of the experimental cycle.
(§3) Weight measurements were taken for animals in each test group on Days 15, 22, 29 and 36 of the study. On Days 16, 23, 30 and 37, the gait of each animal, the change of plantar pain threshold induced by knee joint lesions on the operative side, and the weight bearing of both lower limbs were measured for each animal was scored on according to the Coderre scoring method, the Up-Down method, and bipedal balance pain testing, respectively.

[2] = tested on: rats with osteoarthritis induced by pMMx+ACLT; assay: Gait score (Coderre scoring method) in pMMx+ACLT osteoarthritis rat model; settings: for Gait Score: Duloxetine 5 mg/kg i.g. daily
Protocol: as §1, §2, §3
Coderre gait method was used to measure the gait of each animal. The gait was measured according to the following scoring: standard (Grade 0: normal walking, 0 point); Level 1 (sight claudication, slight bending below knee joint, 2 points); Level 2 (claudication, the affected limb can touch the ground, 4 points); Level 3 (severe claudication, the affected limb leaves the ground and walk on three feet, 6 points).
(§4) The gait scoring, plantar pain threshold, and weight bearing differential were expressed as the mean and […] (Mean±SD). The data between model group and administration group at multiple time points were analyzed by repeated measures analysis of variance method with SPSS Statistics 21 software, and Tamhane's method for subsequent analysis. P<0.05 was considered to have a significant difference, and p<0.01 was considered to have a very significant difference. The final data were plotted with GraphPad Prism 6 software.

[3] = tested on: rats with osteoarthritis induced by pMMx+ACLT; assay: Mechanical pain threshold of plantar pain (Von Frey Up-Down method, 50% MWT) in pMMx+ACLT osteoarthritis rat model; settings: for Percent Increase in 50% MWT (g) (as compared to Day 15 of study) / Pain threshold of plantar pain, 50% MWT: Duloxetine 5 mg/kg i.g. daily
Protocol: as §1, §2, §3
The Up-Down method was used to measure the plantar pain threshold. Following the Up-Down methos, each rat was placed in a transparent enclosure with a sieve-shaped metal plate at the bottom, and the animal was allowed to adapt to about 15 minutes until the autonomous exploration and grooming activities stop. Von Frey probes were then used to vertically stimulate the middle of the hind plantar of each rat to make the plantar slightly s-shaped for 5 second, and the paw withdrawal response was observed. A positive response was noted if the paw was sharply withdrawn or there was flinching upon removal. The interval between each measurement was about 10 sec. If no response was observed after probe stimulation, it was regarded as a negative reaction.
For scoring the mechanical pain, the rats were stimulated with a series of Von Frey probes of 0.4, 0.6, 1, 1.4, 2, 4, 6, 8, 10, and 15 g). Testing was start with a 2 g probe, and if a positive reaction occurred, it was recorded as an “X,” and testing was continued with a 1.4 g probe. […] Testing was continued accordingly, using the probes successively without circumvention. […] If a positive reaction was induced even by the 0.4 g probe, the 50% MWT was recorded as 0.4 g. […]

[4] = tested on: rats with osteoarthritis induced by pMMx+ACLT; assay: Weight bearing difference of hind legs (biped balance measurement) in pMMx+ACLT osteoarthritis rat model; settings: for Weight bearing difference of hind legs: Duloxetine 5 mg/kg i.g. daily
Protocol: as §1, §2, §3
A bipedal balance pain tester was used to evaluate the weight bearing of both lower limbs for each animal. Each animal was placed in the plexiglass cover of the biped balance pain instrument. After the animal completed their exploratory behavior, the forelimbs of the rats laid on the incline of the device, and the hind limbs stood on the left and right balance plates respectively. […] The measurements were repeated three times for each animal, with an interval of 10 seconds between each replicate measurement.
as §4

[5] = Day 1 (before model establishment)
[6] = duloxetine 5 mg/kg, multivariate test, p<0.05

SMILES: CNCC[C@H](Oc1cccc2ccccc12)c1cccs1 [Duloxetine, Duloxetine hydrochloride]
- Weight ([1]; Day 1 of study (before treatment)): 223.8 ± 7.8 g
- Weight ([1]; Day 8 of study (model establishment, before treatment)): 280.1 ± 11.2 g
- Weight ([1]; Day 15 of study (treatment start)): 317.8 ± 20.4 g
- Weight ([1]; Day 22 of study): 353.9 ± 23.0 g
- Weight ([1]; Day 29 of study): 389.9 ± 26.2 g
- Weight ([1]; Day 36 of study): 423.0 ± 30.0 g
- Gait Score ([2]; Day 16 of study): 3.5 ± 0.9
- Gait Score ([2]; Day 23 of study): 3.0 ± 1.1
- Gait Score ([2]; Day 30 of study): 1.3 ± 1.0
- Gait Score ([2]; Day 37 of study): 0.0 ± 0.0
- Gait score compared to the vehicle-treated group ([2]; duloxetine 5 mg/kg, multivariate test, p>0.05): no significant different
- Percent Increase in 50% MWT (g) (as compared to Day 15 of study) ([3]; Day 1): 0.0%
- Pain threshold of plantar pain, 50% MWT [3, 5]: 15.00 ± 0.00 g
- Percent Increase in 50% MWT (g) (as compared to Day 15 of study) ([3]; Day 15): 0.7%
- Pain threshold of plantar pain, 50% MWT ([3]; Day 15 (before administration of treatment)): 3.23 ± 0.64 g
- Pain threshold of plantar pain, 50% MWT ([3]; Day 16): 5.27 ± 2.72 g
- Percent Increase in 50% MWT (g) (as compared to Day 15 of study) ([3]; Day 16): 52.9%
- Pain threshold of plantar pain, 50% MWT ([3]; Day 23): 7.11 ± 2.45 g
- Percent Increase in 50% MWT (g) (as compared to Day 15 of study) ([3]; Day 23): 90.3%
- Pain threshold of plantar pain, 50% MWT ([3]; Day 29): 8.47 ± 4.92 g
- Percent Increase in 50% MWT (g) (as compared to Day 15 of study) ([3]; Day 30): 108.2%
- Pain threshold of plantar pain, 50% MWT ([3]; Day 37): 9.84 ± 4.65 g
- Percent Increase in 50% MWT (g) (as compared to Day 15 of study) ([3]; Day 37): 70.9%
- Pain threshold of plantar pain over time compared with osteoarthritis model (vehicle-treated) group [3, 6]: significant increase
- Pain threshold of plantar pain at each time point ([3]; duloxetine dosage group, Days 23, 30 and 37 of the study, p<0.05): significantly increased
- Weight bearing difference of hind legs [4, 5]: 2.96 ± 1.88 g
- Weight bearing difference of hind legs ([4]; Day 15 (treatment start)): 104.28 ± 11.40 g
- Weight bearing difference of hind legs ([4]; Day 16): 95.60 ± 2.27 g
- Weight bearing difference of hind legs ([4]; Day 23): 80.91 ± 1.98 g
- Weight bearing difference of hind legs ([4]; Day 30): 56.80 ± 4.06 g
- Weight bearing difference of hind legs ([4]; Day 37): 51.12 ± 4.81 g
- Decrease in hind limb weight bearing difference over time compared with osteoarthritis model (vehicle-treated) group [4, 6]: significant
- Hind limb weight bearing difference at each time point ([4]; duloxetine test group, Days 16, 23, 30 and 37, p<0.01): significant decrease
